# Assay results from US7053052B2, “Therapies involving mutated heat shock transcription factor” (priority 1997, dated 2006).
# Columns and labels:
# HeLa-CAT cells [1] = assay: Rates of protein and DNA synthesis in HSF1(+)-expressing cells (3H-leucine, 3H-thymidine incorporation); assay type: cell-based, human; settings: day 2
# Method: CAT assays were performed using the chromatographic assay of Gorman, C. M. et al., Mol. Cell. Biol., 2:1044–1051 (1982)). DNA replication was assessed by a standard ^3H-thymidine incorporation assay. In most experiments, including all western blot assays, standardization was based on protein content. All protein determinations were made using the Bradford method. In a few experiments involving sorted cells, standardization was based on cell numbers. All experiments were repeated at least twice, and, in most cases, each data point was derived from assays of 3–5 parallel samples.
# Protein synthesis dropped to about 10% of the normal rate during heat shock but, after a 1 hour recovery period, returned to pre-shock level in HSF1(+)-expressing but not control cells. […] Fluorescence-activated cell sorting and analyses of DNA content were performed on a FACStar Plus machine (Becton-Dickinson, San Jose, Calif.) configured as described elsewhere (Parks, D. R. et al., In: The Handbook of Experimental Immunology, 4th Edition. Vol. 29. pp. 1–29, 1986). Excitation wave length was 488 nm, and detection lengths were 650 nm (long pass) for propidium iodide and 520 nm (narrow band) for fluorescence by GFP. Extracts from sorted cells were analyzed by western blot. mutHSF was detected in cells sorted as positive for GFP, but not in cells sorted as negative compare. […]
# HeLa-CAT cells [2] = assay: Recovery of translation after heat shock (3H-leucine pulse-labeling); assay type: cell-based, human; settings: contribution of untransfected cells subtracted
# Method: In a typical experiment, parallel HeLa-CAT cultures in 60 mm dishes (more than 70% confluent) were transfected with 0.75 ug of EGFP construct and 2.25 ug of HSF1(+) or HSF1(−) construct and 15 ul Lipofectamine™. Before exposing the cultures to heat shock about 36 hours post transfection, cells were replated (to achieve about 70% confluence). Note that in some experiments, HSF1(+) was delivered by infection with an adenoviral vector rather than by transfection. Cultures were exposed to a 42° C./1 hour heat shock and then returned to 37° C. Rates of protein synthesis before, during, and at different times after a subsequent, more severe heat shock were determined by pulse-labeling of cells with ^3H-leucine. For labeling, cultures were washed two times with prewarmed PBS, and one ml of labeling medium (leucine-free DMEM with 2% FBS and 65 uCi of ^3H-leucine (179 Ci/mmolc)) was added. […] Relative rates of protein synthesis were calculated as cpm/ug protein. […]
# To find out whether HSF1(−) could function as a negatively acting factor, HeLa-CAT cells containing integrated copies of an hsp70B-chloramphenicol acetyltransferase (CAT) gene were co-transfected with an HSF1(−) and an EFGP-expressing construct. […] Rates of protein synthesis were assessed by pulse-labeling cells with ^3H-leucine. […]
Substance,reduction of DNA replication (3H-thymidine incorporation) compared to control cells (HeLa-CAT cells [1]),corrected rate of protein synthesis one hour after heat shock (HeLa-CAT cells [2]; first experiment),corrected rate of protein synthesis one hour after heat shock (HeLa-CAT cells [2]; second experiment)
human HSF1d202–316 [HSF1(+)],4–5 fold,–,–
human HSF1d453–523 [HSF1(−)],–,about 5%,~24%
